Source: ChEMBL document CHEMBL5370533 (Eur J Med Chem, 2023)

What was measured:
MV4-11 [1] = experiment: Antiproliferative activity against human MV4-11 cells harboring FLT3 ITD mutant assessed as inhibition of cell growth incubated for 72 hrs by CellTiter-Glo luminescent assay; format: functional, cell-based; details: MV4-11, 72 h
[2] = molecular target: T1, Receptor-type tyrosine-protein kinase FLT3 (Homo sapiens, UniProt P36888); experiment: Inhibition of human FLT3 using EAIYAAPFAKKK and [gamma-33P]-ATP as substrate pretreated for 20 mins followed by [gamma-33P]-ATP addition and measured after 120 mins in presence of 10 uM ATP by radiometric Hot-SpotSM Kinase assay
T1 sequence (P36888 whole entry): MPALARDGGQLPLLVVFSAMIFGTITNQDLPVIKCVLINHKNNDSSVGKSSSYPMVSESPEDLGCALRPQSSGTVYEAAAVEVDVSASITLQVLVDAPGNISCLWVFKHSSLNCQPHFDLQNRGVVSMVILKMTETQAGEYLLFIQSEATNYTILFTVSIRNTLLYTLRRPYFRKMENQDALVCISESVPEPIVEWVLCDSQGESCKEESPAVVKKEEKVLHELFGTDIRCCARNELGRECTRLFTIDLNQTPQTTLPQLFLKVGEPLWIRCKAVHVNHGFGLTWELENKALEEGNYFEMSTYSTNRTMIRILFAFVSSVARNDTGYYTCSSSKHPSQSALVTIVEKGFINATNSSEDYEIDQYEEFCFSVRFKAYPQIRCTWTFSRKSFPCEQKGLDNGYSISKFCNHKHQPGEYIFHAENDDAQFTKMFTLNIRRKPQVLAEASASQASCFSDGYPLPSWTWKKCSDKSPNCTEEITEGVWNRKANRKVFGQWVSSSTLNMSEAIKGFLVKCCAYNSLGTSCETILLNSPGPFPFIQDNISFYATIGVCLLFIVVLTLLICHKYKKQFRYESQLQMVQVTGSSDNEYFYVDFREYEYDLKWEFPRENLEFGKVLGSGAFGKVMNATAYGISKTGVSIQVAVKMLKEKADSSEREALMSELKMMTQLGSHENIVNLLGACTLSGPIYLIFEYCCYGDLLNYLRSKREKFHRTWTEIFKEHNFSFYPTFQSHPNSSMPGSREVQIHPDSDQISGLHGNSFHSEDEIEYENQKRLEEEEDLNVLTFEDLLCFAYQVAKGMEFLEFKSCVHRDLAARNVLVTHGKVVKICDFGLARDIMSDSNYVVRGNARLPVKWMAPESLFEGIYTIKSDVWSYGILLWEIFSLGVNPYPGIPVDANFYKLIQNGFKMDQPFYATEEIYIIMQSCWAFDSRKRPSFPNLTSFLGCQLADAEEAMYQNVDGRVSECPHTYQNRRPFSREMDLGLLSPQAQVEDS

[3] = molecular target: T2, Cyclin-dependent kinase 2 (Homo sapiens, UniProt P24941); experiment: Inhibition of human CDK2 assessed as enzyme activity at 0.123 uM pretreated for 20 mins followed by [gamma-33P]-ATP addition and measured after 120 mins in presence of 10 uM ATP by radiometric Hot-SpotSM Kinase assay; design: scale not given: the % may be the effect or the level left; details: time 140.0 min
[4] = molecular target: T3, Cyclin-dependent kinase 6 (Homo sapiens, UniProt Q00534); experiment: Inhibition of human CDK6 assessed as enzyme activity at 0.123 uM pretreated for 20 mins followed by [gamma-33P]-ATP addition and measured after 120 mins in presence of 10 uM ATP by radiometric Hot-SpotSM Kinase assay; design: scale not given: the % may be the effect or the level left; details: time 140.0 min
[5] = Cytotoxicity against human PBMC cells assessed as inhibition of cell growth; format: toxicity, cell-based
BaF3 [6] = experiment: cells; format: functional, cell-based; details: Mus musculus, BaF3, 72 h
Description: Antiproliferative activity against mouse BaF3 cells harboring FLT3 ITD/F691L mutant assessed as inhibition of cell growth incubated for 72 hrs

K562 = experiment: Antiproliferative activity against human K562 cells deficit of oncogenic FLT3 assessed as inhibition of cell growth; format: functional, cell-based
MV4-11 [7] = experiment: animal or person; format: functional, Homo sapiens; details: Mus musculus, MV4-11, 336 h, route po, time 2 weeks
Description: Antitumor activity against human MV4-11 cells xenografted in nu/nu mouse assessed as inhibition of tumor growth at 50 mg/kg, po qd for 2 weeks by vernier caliper analysis

[8] = Toxicity against nu/nu mouse xenografted with human MV4-11 cells assessed as decrease in body weight at 50 mg/kg, po qd for 2 weeks; format: organism-based; details: in vivo, 336 h
HL-60 = experiment: Antiproliferative activity against human HL-60 cells expressing low level wild type FLT3 assessed as inhibition of cell growth; format: functional, cell-based
[9] = Cytotoxicity against mouse BaF3 cells assessed as inhibition of cell growth incubated for 72 hrs; format: toxicity, cell-based
BaF3 [10] = experiment: cells; format: functional, cell-based; details: Mus musculus, BaF3, 72 h; remark: listed apart in the source
Description: Antiproliferative activity against mouse BaF3 cells harboring FLT3 ITD mutant assessed as inhibition of cell growth incubated for 72 hrs

MOLM-13 = experiment: Antiproliferative activity against human MOLM-13 cells harboring FLT3 ITD mutant assessed as inhibition of cell growth; format: functional, cell-based
BaF3 [11] = experiment: cells; format: functional, cell-based; details: Mus musculus, BaF3, 72 h; remark: listed apart in the source
Description: Antiproliferative activity against mouse BaF3 cells harboring FLT3 ITD/D835V mutant assessed as inhibition of cell growth incubated for 72 hrs

[12] = Toxicity against nu/nu mouse xenografted with human MV4-11 cells assessed as animal's mortality at 50 mg/kg, po qd for 2 days; format: organism-based; details: in vivo, 48 h, time 2 day
BaF3 [13] = experiment: cells; format: functional, cell-based; details: Mus musculus, BaF3, 72 h; remark: listed apart in the source
Description: Antiproliferative activity against mouse BaF3 cells harboring FLT3 ITD/N676D mutant assessed as inhibition of cell growth incubated for 72 hrs

BaF3 [14] = experiment: Antiproliferative activity against mouse BaF3 cells harboring FLT3 D835V mutant assessed as inhibition of cell growth incubated for 72 hrs; format: functional, cell-based; details: BaF3, 72 h
[15] = molecular target: T3, Cyclin-dependent kinase 6; experiment: Inhibition of human CDK6 pretreated for 20 mins followed by [gamma-33P]-ATP addition and measured after 120 mins in presence of 10 uM ATP by radiometric Hot-SpotSM Kinase assay
[16] = molecular target: T2, Cyclin-dependent kinase 2; experiment: Inhibition of human CDK2 pretreated for 20 mins followed by [gamma-33P]-ATP addition and measured after 120 mins in presence of 10 uM ATP by radiometric Hot-SpotSM Kinase assay
[17] = molecular target: Receptor-type tyrosine-protein kinase FLT3 (Homo sapiens) (UniProt P36888); experiment: Inhibition of human FLT3 assessed as enzyme activity using EAIYAAPFAKKK and [gamma-33P]-ATP as substrate at 0.123 uM pretreated for 20 mins followed by [gamma-33P]-ATP addition and measured after 120 mins in presence of 10 uM ATP by radiometric Hot-SpotSM Kinase assay; design: scale not given: the % may be the effect or the level left; details: time 140.0 min
THP-1 = experiment: Antiproliferative activity against human THP-1 cells expressing wild type FLT3 assessed as inhibition of cell growth; format: functional, cell-based
U-937 = experiment: Antiproliferative activity against human U-937 cells expressing low level wild type FLT3 assessed as inhibition of cell growth; format: functional, cell-based

T3 sequence (Q00534 whole entry): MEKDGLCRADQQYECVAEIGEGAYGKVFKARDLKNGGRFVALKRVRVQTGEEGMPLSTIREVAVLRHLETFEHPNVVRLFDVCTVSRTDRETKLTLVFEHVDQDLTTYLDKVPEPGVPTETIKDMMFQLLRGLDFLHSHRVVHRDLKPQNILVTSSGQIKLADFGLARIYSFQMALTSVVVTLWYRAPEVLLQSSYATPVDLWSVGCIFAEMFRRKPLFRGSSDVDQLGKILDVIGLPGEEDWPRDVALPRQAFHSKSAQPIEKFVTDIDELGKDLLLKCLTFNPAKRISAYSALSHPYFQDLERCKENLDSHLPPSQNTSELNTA

Row | Compound | IC50 (MV4-11 [1]) [nM] | IC50 [2] [nM] | Activity [3] [%] | Activity [4] [%] | other results
1 | O=C(Nc1ccc(N2CCNCC2)cc1)c1n[nH]cc1Nc1cc(C2CCCC2)ncn1 | 100 | 15.4 | 79.3 | 86.3 | –
2 | CN1CCN(Cc2ccc(NC(=O)c3n[nH]cc3Nc3ncnc4[nH]ccc34)cc2)CC1 | 7 | – | – | – | IC50 [5]: 126 nM; IC50 (BaF3 [6]): 56 nM; IC50 (K562): 795 nM; inhibition in vivo at 50 mg/kg (MV4-11 [7]): 94.6%; Activity [8]: Toxic; IC50 (HL-60): 770 nM; IC50 at 72 h [9]: 155 nM; IC50 (BaF3 [10]): 38 nM; IC50 (MOLM-13): 5.4 nM; IC50 (BaF3 [11]): 8 nM; Activity [12]: Toxic; IC50 (BaF3 [13]): 73 nM; IC50 (BaF3 [14]): 39 nM
3 | O=C(Nc1ccc(N2CCNCC2)cc1)c1n[nH]cc1Nc1cc(NC2CCCC2)ncn1 | 100 | 21.2 | 69.5 | 72.9 | –
4 | O=C(Nc1ccc(N2CCNCC2)cc1)c1n[nH]cc1Nc1cc(-c2ccoc2)ncn1 | – | 41.3 | 83.5 | 87.5 | –
5 | Cc1nc(Nc2c[nH]nc2C(=O)Nc2ccc(N3CCNCC3)cc2)cc(Oc2ccccc2)n1 | – | 11.2 | 82.3 | 88.8 | –
6 | O=C(Nc1ccc(CN2CCOCC2)cc1)c1n[nH]cc1Nc1cc(C2CCCC2)ncn1 | 210 | 29.7 | 71.4 | 92.6 | –
7 | O=C(Nc1ccc(N2CCNCC2)cc1)c1n[nH]cc1Nc1cc(-c2ccccc2)ncn1 | – | 45.2 | 89.3 | 101 | –
8 | O=C(Nc1ccc(N2CCNCC2)cc1)c1n[nH]cc1Nc1cc(C2CCCCCC2)ncn1 | – | 28.9 | 84.8 | 94.3 | –
9 | O=C(Nc1ccc(N2CCNCC2)cc1)c1n[nH]cc1Nc1cc(OCC2CCCC2)ncn1 | 90 | 11.3 | 51 | 51.3 | –
10 | CN1CCN(Cc2ccc(NC(=O)c3n[nH]cc3Nc3cc(C4CCCC4)ncn3)cc2)CC1 | 200 | 19.4 | 78.8 | 88.9 | –
11 | O=C(Nc1ccc(N2CCNCC2)cc1)c1n[nH]cc1Nc1cc(C2CC2)ncn1 | 80 | 8.42 | – | – | IC50 [15]: 125 nM; IC50 [16]: 193 nM
12 | O=C(Nc1ccc(N2CCNCC2)cc1)c1n[nH]cc1Nc1cc(OC2CCCCCC2)ncn1 | – | 28.8 | 54.6 | 58.1 | –
13 | O=C(Nc1ccc(N2CCNCC2)cc1)c1n[nH]cc1Nc1cc(C2=CCOCC2)ncn1 | – | 25.1 | 76.5 | 86.4 | –
14 | O=C(Nc1ccc(N2CCNCC2)cc1)c1n[nH]cc1Nc1cc(OC2CCCCC2)ncn1 | 130 | 19.2 | 53.1 | 58.4 | –
15 | CO[C@@H]1[C@H](N(C)C(=O)c2ccccc2)C[C@H]2O[C@]1(C)n1c3ccccc3c3c4c(c5c6ccccc6n2c5c31)C(=O)NC4 [MIDOSTAURIN] | – | – | – | – | IC50 at 72 h [9]: 320 nM; IC50 (BaF3 [14]): 4 nM
16 | Cc1cnc(Nc2c[nH]nc2C(=O)Nc2ccc(N3CCNCC3)cc2)nc1Oc1ccccc1 | – | – | 88.6 | 88.4 | Activity [17]: 83%
17 | O=C(Nc1ccc(N2CCOCC2)cc1)c1n[nH]cc1Nc1cc(C2CCCC2)ncn1 | – | 58.3 | 83.3 | 93.3 | –
18 | CC(C)(C)c1cc(NC(=O)Nc2ccc(-c3cn4c(n3)sc3cc(OCCN5CCOCC5)ccc34)cc2)no1 [QUIZARTINIB] | 5.3 | – | – | – | IC50 [5]: 1260 nM; IC50 (K562): 291 nM; IC50 (THP-1): 201 nM; IC50 (HL-60): 771 nM; IC50 at 72 h [9]: > 10000 nM; IC50 (BaF3 [10]): 1 nM; IC50 (MOLM-13): 15.2 nM; IC50 (BaF3 [11]): 93 nM; IC50 (U-937): 251 nM; IC50 (BaF3 [14]): 100 nM
19 | CN1CCN(Cc2ccc(NC(=O)c3n[nH]cc3Nc3ccncn3)cc2)CC1 | – | 7.29 | – | – | IC50 [15]: 14.3 nM; IC50 [16]: 23 nM
20 | O=C(Nc1ccc(N2CCNCC2)cc1)c1n[nH]cc1Nc1cc(OC2CCCC2)ncn1 | 110 | 7.84 | – | – | IC50 [15]: 158 nM; IC50 [16]: 135 nM
21 | Cc1cc(Oc2ccccc2)nc(Nc2c[nH]nc2C(=O)Nc2ccc(N3CCNCC3)cc2)n1 | – | – | 78.3 | 91.5 | Activity [17]: 71.7%
